Patent US20150166646A1, “Methods and Compositions for Treating or Diagnosing Melanoma” (The Wistar Institute of Anatomy and Biology, priority 2012, published 2015)

Legend:
[1] = system: macrophages; assay: Macrophage growth (WST-1) and cell death; assay type: cell-based, human; conditions: 3 μM, 72 hours
[2] = system: 1205Lu melanoma cells; assay: Matrigel Transwell invasion assay with 1205Lu-MΦ conditioned medium; assay type: cell-based, human; conditions: anti-CCL2 10 μg/ml
Procedure: The invasion assay was conducted with 24-well Transwell inserts (8 μm pore size; Corning). For the MCMI-MΦ-induced invasion assay, 4×10^5 1205Lu melanoma cells in 2% FBS RPMI1640 medium were added in the upper chamber precoated with 50 μl Matrigel (1:3 dilution, BD Biosciences). Media from 1205Lu-MΦ were added to the lower chamber, and R10 medium was used as a control. After overnight incubation, cells that had invaded
were fixed and stained with Diff-Quick staining kit (ThermoFisher). The stained cells in 4 randomly chosen fields were counted for each insert (200×). […]
We used a Matrigel Transwell assay and compared invasion of melanoma cells attracted to the supernatant of 1205Lu-MΦ alone or the supernatant with an anti-CCL2 monoclonal antibody and a pan-MMPs inhibitor GM6001 (see FIG. 7; see also FIG. 4(A)-(E) of Reference 11).

[3] = system: 1205Lu xenograft; assay: 1205Lu xenograft tumor growth in nude mice; assay type: in vivo
Procedure: 5×10^5 1205Lu cells were subcutaneously injected to Nude mice (Female, 8 weeks old).
Tumor size was measured by a caliper. Tumor volume was calculated by the formula: Volume width×wide×length/2. The results are shown in the plot of FIG. 12A, plotting tumor volume vs. day.
Tumors from the experiment described immediately above were extracted and weighted after mice were euthanized. Tumor weight in grams was plotted vs. control or an agent defined along the x axis of FIG. 22A.
All studies were conducted under IACUC guidelines. 7 weeks old BALB/c female nude mice (National Cancer Institute) were injected subcutaneously with 1×10^61205Lu cells in 50% Matrigel (BD Biosciences) in both flanks of mice. When xenografts reached volumes of approximately 100 mm^3, mice were randomly grouped to four groups, with 5 animals per group. GW2580 was dissolved in 0.5% hydroxypropylmethylcellulose (Sigma-Aldrich, MO, USA) and 0.1% Tween 80, and was dosed orally at 160 mg/Kg once daily. […] Tumor volumes were measured every three days using a digital caliber and were calculated using the equation V=0.5×L×W^2. Mice tumors were weighted after mice were euthanized.
1205Lu cells were injected s.c into both flanks of nude mice. […] ANOVA was used to compare the differences in tumor volume. Mice were euthanized on day 14, peritoneal cells were harvested for flow cytometric analysis of the percent of F4/80 positive macrophages. Immunohistochemistry analysis of the expression of F4/80, phospho-ERK and Ki67 in tumors was conducted. The results are shown in FIGS. 12A-E. See, also the data in FIGS. 3B and 3C

[4] = system: peritoneal F4/80 positive macrophages; assay: Flow cytometric analysis of peritoneal macrophages of treated xenograft mice; assay type: in vivo; conditions: day 14
[5] = system: 1205Lu xenograft tumor tissues; assay: Immunohistochemistry of xenograft tumors (F4/80, phospho-ERK, Ki67); assay type: in vivo, mice; conditions: for Ki67 positive cells in tumor tissues / signaling of phospho-ERK in tumor tissues: compared to control mice; for F4/80 positive macrophages in tumors: day 14
[6] = system: 1205Lu and A375 melanoma cells; assay: Melanoma cell growth (WST-1) and cell death (Annexin V/7-AAD), cells cultured alone; assay type: cell-based, human
[7] = system: melanoma cells co-cultured with macrophages; assay: Melanoma/macrophage transwell co-culture: growth (WST-1) and cell death; assay type: cell-based, human; conditions: for macrophage-mediated resistance of melanoma cells to BRAFi (cell growth, anti-cell death effect): co-culture with macrophages in presence of PLX4720, 3 days
[8] = system: 1205Lu; assay: Western blot of 1205Lu cells treated with PLX4720, GW2580, soluble M-CSFR with or without MCMI-Mφ; assay type: cell-based, human; conditions: 10 μM, 3 days, without MCMI-Mφ
[9] = system: MAPK pathway in macrophages; assay: Immunoblotting of MAPK signaling in macrophages; assay type: cell-based, human; conditions: 2 hours; accompanied by phosphorylation of CRAF
Procedure: For macrophages, after monocytes were differentiated to the macrophages, cells in 2% FBS melanoma media were seeded into 15 ml tubes. […] Immunoblotting were performed as described previously. The following antibodies were used: anti-phospho-ERK, ERK, Phospho-VEGFR1, phospho-CRAF, CRAF, PCNA, HSP90 and Rab11.
Cells were harvested for immunoblotting of antibodies to pERK (short expression), pERK, ERK, pCRAF (S338), CRAF, and Rab11 as shown in FIG. 11A. An ELISA assay was performed to determine the activation of RAS in 3 macrophage donors and the melanoma cells A375 and 1205Lu. As see in FIG. 11B, macrophages have high basal level of RAS activation.

[10] = system: 1205Lu; assay: Western blot for cPARP in 1205Lu cells; assay type: cell-based, human; conditions: PLX4720 1, 3, 10 μM, 2 days, with or without macrophages
[11] = system: VEGF production in macrophages; assay: Intracellular staining for VEGF production in macrophages; conditions: 4 hours
[12] = system: MAPK pathway (pERK) in melanoma cells; assay: Immunoblotting of MAPK signaling in melanoma cells; assay type: cell-based, human; conditions: VEGF 10 ng/ml and PLX4720 1 μM, 4 hours
Procedure: Macrophages and melanoma co-culture system was set up as described above. Melanoma cells were cultured same as Proliferation assay for 6 hours and were harvested for Immmunoblotting with following antibodies: phspho-ERK, total ERK, HSP90, phosphor-AKT, AKT, phosphor-NF-κB, phospho-CRAF, total CRAF, Phospho-ARAF, RAB11, Vinculin.
Cells were harvested for immunoblotting with antibodies to pERK, ERK, HSP90. VEGF increases the activation of MAPK pathway (FIG. 10C).
Relative cell growth and cell death were determined as above.

Compound: CC(C)(C)c1nc(-c2cccc(NS(=O)(=O)c3c(F)cccc3F)c2F)c(-c2ccnc(N)n2)s1 [Dabrafenib]
- macrophage apoptosis / cell death [1]: protects macrophage from cell death

Compound: CNC(=O)[C@H](Cc1c[nH]c2ccccc12)NC(=O)[C@@H](CC(=O)NO)CC(C)C [GM6001]
- 1205Lu-MΦ supernatant induced melanoma invasion ([2]; GM6001 10 μM, Matrigel Transwell): did not have a significant effect
- melanoma cell invasion (FIG. 7) ([2]; MMPi 5 μM, 18 h, 1205Lu-MΦ CM): marginally increased melanoma cell invasion

Compound: COc1ccc(COc2ccc(Cc3cnc(N)nc3N)cc2OC)cc1 [GW2580, 5-(3-methoxy-40((4-methoxybenzyl)oxy)benzyl)pyrimidine-2,4-diamine]
- efficacy compared with PLX4720 alone ([3]; 14 days, GW2580 160 mg/kg vs PLX4720): less efficacious than PLX4720
- tumor size / tumor growth ([3]; after 14 days of oral treatment, GW2580 160 mg/kg, PLX4720 30 mg/ml as printed): significantly decreased tumor size
- effect on anti-tumor activity of PLX4720 on 1205Lu xenograft tumor growth (FIG. 12A) ([3]; oral, 14 days): increases anti-tumor activity of PLX4720
- numbers of peritoneal F4/80 positive macrophages [4]: significant decrease
- Ki67 positive cells in tumor tissues [5]: fewer
- signaling of phospho-ERK in tumor tissues [5]: decreased signaling
- F4/80 positive macrophages in tumors [5]: abolished
- melanoma growth and death in vitro ([6]; GW2580 alone, 72 hours): did not have significant effects
- macrophage-mediated resistance of melanoma cells to BRAFi (cell growth, anti-cell death effect) [7]: can reverse macrophage-mediated resistance
- expression of pERK, pAKT, pS6, pRSK90 (Western blot) [8]: all blots appear similar to col. 4

Compound: COc1cc2nccc(Oc3ccc(NC(=O)NC4CC4)c(Cl)c3)c2cc1C(N)=O [Lenbatinib]
- macrophage-mediated resistance of melanoma cells to BRAFi (cell growth, anti-cell death effect) [7]: reverse macrophage-mediated resistance

Compound: CCCS(=O)(=O)Nc1ccc(F)c(C(=O)c2c[nH]c3ncc(Cl)cc23)c1F [PLX4720]
- numbers of peritoneal F4/80 positive macrophages [4]: amplified this effect
- Ki67 positive cells in tumor tissues [5]: fewer
- signaling of phospho-ERK in tumor tissues [5]: decreased signaling
- F4/80 positive macrophages in tumors [5]: significant decrease
- BRAFi-induced growth inhibition and cell death of melanoma cells when co-cultured with macrophages ([7]; 0-10 μM, 3 days, 1205Lu, A375, SK-MEL-28, 451Lu): significantly protected from PLX4720-induced growth inhibition and cell death
- macrophage apoptosis / cell death [1]: protects macrophage from apoptosis
- MAPK signaling in macrophages [9]: strongly activated
- cPARP gel (Western blot) [10]: showed a second blot
- production of VEGF in macrophages [11]: significantly increased

Compound: VEGF
- rescue of PLX4720-induced cell growth inhibition ([6]; VEGF 10 ng/ml with PLX4720, 3 days): rescued PLX4720-induced cell growth inhibition
- MAPK pathway in melanoma cells [12]: activated the MAPK pathway

Compound: m-CSFR: soluble M-CSFR
- expression of pERK, pAKT, pS6, pRSK90 (Western blot) [8]: no change from control
